This is an account of results in paper PMC3997178 (Neuron, 2014).

Experiment [1] concerns GluN1/GluN2D NMDA receptors. The experiment can be described thus: TEVC inhibition of currents, GluN1/GluN2D in Xenopus oocytes. The class given is cell-based, rat.
Experiment [2] addresses GluN1/GluN2A NMDA receptors (Rattus norvegicus, UniProt Q00959). The class given is cell-based.
The target in experiment [3] is GluN1/GluN2A Phe416Ala NMDA receptor (Rattus norvegicus, UniProt Q00959, F416A). Put plainly: TEVC mutational analysis, GluN2A Phe416Ala. The settings on record: Phe416Ala vs wild type.
In experiment [4] the target is GluN1/GluN2A NMDA receptors (Rattus norvegicus, UniProt P35439+Q00959). The experiment is classed as cell-based.
The target in experiment [5] is GluN1/GluN2A Tyr730Leu NMDA receptor (Rattus norvegicus, UniProt Q00959, Y730L). Put plainly: TEVC mutational analysis, GluN2A Tyr730Leu. The settings on record: Tyr730Leu vs wild type.
The target in experiment [6] is GluN1/GluN2A Tyr730Phe NMDA receptor (Rattus norvegicus, UniProt Q00959, Y730F). Put plainly: TEVC mutational analysis, GluN2A Tyr730Phe. The settings on record: Tyr730Phe vs wild type.
Experiment [7] concerns the target GluN1/GluN2A Val734Ala NMDA receptor (Rattus norvegicus, UniProt Q00959, V734A). Put plainly: TEVC mutational analysis, GluN2A Val734Ala. The settings on record: Val734Ala vs wild type.
Experiment [8] addresses GluK1 kainate receptors (Tyr506Cys Leu768Cys) (Rattus norvegicus, UniProt P22756, L798C/Y536C). The experiment can be described thus: TEVC inhibition of L-glutamate induced currents, non-desensitizing GluK1 mutant. The class given is cell-based.
Experiment [9] addresses GluN1/GluN2A Lys738Met NMDA receptor (Rattus norvegicus, UniProt Q00959, K738M). Put plainly: TEVC mutational analysis, GluN2A Lys738Met. Conditions: Lys738Met vs wild type.
Experiment [10] has as its target GluN1/GluN2A Tyr737Ala NMDA receptor (Rattus norvegicus, UniProt Q00959, Y737A). Put plainly: TEVC mutational analysis, GluN2A Tyr737Ala. The settings on record: Tyr737Ala vs wild type.
Experiment [11] has as its target GluA2 AMPA receptors (Leu483Tyr, flip) (Rattus norvegicus, UniProt P19491, L504Y). Put plainly: TEVC inhibition of L-glutamate induced currents, non-desensitizing GluA2 mutant. The class given is cell-based.
Experiment [12] concerns the target GluN1/GluN2A Val713Ala NMDA receptor (Rattus norvegicus, UniProt Q00959, V713A). The experiment can be described thus: TEVC mutational analysis, GluN2A Val713Ala. Conditions: Val713Ala vs wild type.
For experiment [13], the target named is GluN1/GluN2A Tyr730Met NMDA receptor (Rattus norvegicus, UniProt Q00959, Y730M). The experiment can be described thus: TEVC mutational analysis, GluN2A Tyr730Met. Conditions: Tyr730Met vs wild type.
In the next experiment the target is GluK1 Met722Tyr (Rattus norvegicus, UniProt P22756, M752Y). The experiment can be described thus: D-AP5 sensitivity of GluK1 Met722 to tyrosine mutant. The class given is cell-based. Conditions: data not shown.
For a further experiment, the target named is GluA2 Leu704Tyr (Rattus norvegicus, UniProt P19491, L504Y/L725Y). The experiment can be described thus: D-AP5 sensitivity of GluA2 Leu704 to tyrosine mutant. The class given is cell-based. Conditions: data not shown.
The subject of the next experiment is non-NMDA receptors. The experiment can be described thus: D-AP5 effect on non-NMDA receptors. The settings on record: as high as 100 µM. The class given is cell-based.
Experiment [14] has as its system GluN2A containing NMDA receptors. Conditions: ref Frizelle et al., 2006; cited from earlier work.
The test system of a further experiment is NMDA receptors. The settings on record: ref Frizelle et al., 2006; Urwyler et al., 1996; cited from earlier work.
Setting [15] is: 100 µM compound in the presence of 30 µM glutamate.

GluN1/GluN2A Phe416Ala NMDA receptor, sequence (Q00959 20-1464 F416A limits assumed, other chains not shown): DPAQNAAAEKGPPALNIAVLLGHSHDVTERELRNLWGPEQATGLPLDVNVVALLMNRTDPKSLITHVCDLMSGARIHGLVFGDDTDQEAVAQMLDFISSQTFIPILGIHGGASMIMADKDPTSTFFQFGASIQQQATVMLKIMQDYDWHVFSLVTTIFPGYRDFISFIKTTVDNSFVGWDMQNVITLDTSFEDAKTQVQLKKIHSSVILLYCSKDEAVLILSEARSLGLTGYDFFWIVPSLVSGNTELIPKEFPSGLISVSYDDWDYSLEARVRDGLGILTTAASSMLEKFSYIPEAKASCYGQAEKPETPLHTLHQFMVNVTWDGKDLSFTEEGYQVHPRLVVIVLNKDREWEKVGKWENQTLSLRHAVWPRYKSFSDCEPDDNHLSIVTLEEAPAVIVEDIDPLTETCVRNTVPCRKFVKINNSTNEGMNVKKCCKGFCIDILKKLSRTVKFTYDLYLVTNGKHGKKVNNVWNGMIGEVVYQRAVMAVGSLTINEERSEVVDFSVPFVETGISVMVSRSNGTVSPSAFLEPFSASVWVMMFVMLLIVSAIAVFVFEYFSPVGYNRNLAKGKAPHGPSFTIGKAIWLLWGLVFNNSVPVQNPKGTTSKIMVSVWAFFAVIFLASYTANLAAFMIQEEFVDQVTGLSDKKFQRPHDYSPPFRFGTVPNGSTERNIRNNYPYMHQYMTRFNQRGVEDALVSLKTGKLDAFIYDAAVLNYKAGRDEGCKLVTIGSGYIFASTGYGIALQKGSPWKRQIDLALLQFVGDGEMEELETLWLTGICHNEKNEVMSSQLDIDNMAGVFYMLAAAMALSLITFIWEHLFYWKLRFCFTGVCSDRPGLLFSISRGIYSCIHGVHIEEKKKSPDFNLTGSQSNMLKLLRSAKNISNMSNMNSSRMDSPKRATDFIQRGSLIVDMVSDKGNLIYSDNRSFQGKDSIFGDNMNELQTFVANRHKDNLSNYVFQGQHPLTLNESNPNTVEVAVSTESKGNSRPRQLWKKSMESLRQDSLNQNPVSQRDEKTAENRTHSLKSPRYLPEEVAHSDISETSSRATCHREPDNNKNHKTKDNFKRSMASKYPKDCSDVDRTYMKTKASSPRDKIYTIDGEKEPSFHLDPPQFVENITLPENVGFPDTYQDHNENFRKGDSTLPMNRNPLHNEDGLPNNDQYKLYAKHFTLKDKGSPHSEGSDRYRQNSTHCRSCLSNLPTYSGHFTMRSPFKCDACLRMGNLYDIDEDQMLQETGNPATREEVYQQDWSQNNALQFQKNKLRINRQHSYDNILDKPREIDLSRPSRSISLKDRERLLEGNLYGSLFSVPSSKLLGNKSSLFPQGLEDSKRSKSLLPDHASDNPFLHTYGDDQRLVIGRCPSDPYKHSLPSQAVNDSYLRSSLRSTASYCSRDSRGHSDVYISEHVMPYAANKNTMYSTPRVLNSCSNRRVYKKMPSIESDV
GluA2 AMPA receptors (Leu483Tyr, flip), sequence (P19491 22-883 isoform P19491-2 L504Y limits assumed): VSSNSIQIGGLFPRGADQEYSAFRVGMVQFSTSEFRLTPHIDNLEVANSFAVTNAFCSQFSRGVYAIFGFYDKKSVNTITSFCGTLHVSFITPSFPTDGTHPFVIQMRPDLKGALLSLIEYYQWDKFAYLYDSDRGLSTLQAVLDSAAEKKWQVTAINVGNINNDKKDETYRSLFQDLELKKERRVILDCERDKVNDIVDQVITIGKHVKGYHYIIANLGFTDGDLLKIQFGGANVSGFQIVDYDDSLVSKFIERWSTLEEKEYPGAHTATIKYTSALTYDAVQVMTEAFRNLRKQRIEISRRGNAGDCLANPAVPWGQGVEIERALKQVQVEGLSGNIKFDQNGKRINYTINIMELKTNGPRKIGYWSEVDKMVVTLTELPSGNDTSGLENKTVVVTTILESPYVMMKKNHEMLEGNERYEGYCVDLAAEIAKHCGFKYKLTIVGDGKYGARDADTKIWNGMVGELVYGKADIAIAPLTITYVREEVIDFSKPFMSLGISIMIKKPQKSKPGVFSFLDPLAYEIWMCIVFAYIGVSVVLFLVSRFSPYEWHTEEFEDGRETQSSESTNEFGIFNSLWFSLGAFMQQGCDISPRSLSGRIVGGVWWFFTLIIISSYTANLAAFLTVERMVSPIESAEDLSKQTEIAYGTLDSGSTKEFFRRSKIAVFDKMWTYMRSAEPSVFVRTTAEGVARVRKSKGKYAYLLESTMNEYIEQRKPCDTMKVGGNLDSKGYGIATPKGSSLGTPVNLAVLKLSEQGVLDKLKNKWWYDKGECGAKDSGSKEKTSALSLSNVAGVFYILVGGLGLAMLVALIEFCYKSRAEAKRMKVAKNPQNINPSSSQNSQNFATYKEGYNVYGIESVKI
GluN1/GluN2A Tyr730Phe NMDA receptor, sequence (Q00959 20-1464 Y730F limits assumed, other chains not shown): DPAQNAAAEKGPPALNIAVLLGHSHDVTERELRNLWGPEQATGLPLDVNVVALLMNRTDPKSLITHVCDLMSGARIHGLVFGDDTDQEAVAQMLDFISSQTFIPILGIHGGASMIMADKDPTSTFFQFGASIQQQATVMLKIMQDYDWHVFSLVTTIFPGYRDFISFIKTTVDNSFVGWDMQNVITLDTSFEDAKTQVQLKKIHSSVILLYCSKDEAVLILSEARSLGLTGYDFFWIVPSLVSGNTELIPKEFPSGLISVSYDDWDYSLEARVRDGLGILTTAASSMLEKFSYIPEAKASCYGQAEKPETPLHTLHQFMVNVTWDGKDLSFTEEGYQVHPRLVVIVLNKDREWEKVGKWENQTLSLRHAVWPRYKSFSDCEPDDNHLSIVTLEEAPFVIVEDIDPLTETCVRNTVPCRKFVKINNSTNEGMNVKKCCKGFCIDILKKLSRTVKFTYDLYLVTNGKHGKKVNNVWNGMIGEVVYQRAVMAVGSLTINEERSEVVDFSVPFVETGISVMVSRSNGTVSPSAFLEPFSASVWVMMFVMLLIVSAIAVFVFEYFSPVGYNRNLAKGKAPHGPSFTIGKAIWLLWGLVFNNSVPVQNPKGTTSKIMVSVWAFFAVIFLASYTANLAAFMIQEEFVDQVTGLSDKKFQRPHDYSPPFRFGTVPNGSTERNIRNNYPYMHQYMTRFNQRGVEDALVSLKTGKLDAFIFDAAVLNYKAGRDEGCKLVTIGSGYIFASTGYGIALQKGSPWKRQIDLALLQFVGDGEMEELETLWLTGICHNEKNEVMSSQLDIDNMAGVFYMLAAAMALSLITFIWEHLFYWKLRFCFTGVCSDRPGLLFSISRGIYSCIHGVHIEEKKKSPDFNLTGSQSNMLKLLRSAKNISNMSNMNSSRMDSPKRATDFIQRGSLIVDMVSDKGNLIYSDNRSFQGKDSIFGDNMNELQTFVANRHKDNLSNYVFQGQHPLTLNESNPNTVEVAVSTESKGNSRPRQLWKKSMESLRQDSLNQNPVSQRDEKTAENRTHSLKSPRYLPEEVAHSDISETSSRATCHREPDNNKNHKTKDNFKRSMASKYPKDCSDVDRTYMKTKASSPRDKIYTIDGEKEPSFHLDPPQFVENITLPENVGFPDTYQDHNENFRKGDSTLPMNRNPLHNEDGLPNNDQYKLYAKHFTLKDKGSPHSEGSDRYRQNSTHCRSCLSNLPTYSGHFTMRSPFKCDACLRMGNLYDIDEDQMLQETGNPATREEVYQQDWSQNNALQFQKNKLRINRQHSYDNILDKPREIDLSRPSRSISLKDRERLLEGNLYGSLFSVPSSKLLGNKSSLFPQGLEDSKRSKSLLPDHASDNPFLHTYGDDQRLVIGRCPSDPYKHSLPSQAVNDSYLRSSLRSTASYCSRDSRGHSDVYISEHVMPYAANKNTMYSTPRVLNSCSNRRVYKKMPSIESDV
GluK1 kainate receptors (Tyr506Cys Leu768Cys), sequence (P22756 31-949 Y536C/L798C): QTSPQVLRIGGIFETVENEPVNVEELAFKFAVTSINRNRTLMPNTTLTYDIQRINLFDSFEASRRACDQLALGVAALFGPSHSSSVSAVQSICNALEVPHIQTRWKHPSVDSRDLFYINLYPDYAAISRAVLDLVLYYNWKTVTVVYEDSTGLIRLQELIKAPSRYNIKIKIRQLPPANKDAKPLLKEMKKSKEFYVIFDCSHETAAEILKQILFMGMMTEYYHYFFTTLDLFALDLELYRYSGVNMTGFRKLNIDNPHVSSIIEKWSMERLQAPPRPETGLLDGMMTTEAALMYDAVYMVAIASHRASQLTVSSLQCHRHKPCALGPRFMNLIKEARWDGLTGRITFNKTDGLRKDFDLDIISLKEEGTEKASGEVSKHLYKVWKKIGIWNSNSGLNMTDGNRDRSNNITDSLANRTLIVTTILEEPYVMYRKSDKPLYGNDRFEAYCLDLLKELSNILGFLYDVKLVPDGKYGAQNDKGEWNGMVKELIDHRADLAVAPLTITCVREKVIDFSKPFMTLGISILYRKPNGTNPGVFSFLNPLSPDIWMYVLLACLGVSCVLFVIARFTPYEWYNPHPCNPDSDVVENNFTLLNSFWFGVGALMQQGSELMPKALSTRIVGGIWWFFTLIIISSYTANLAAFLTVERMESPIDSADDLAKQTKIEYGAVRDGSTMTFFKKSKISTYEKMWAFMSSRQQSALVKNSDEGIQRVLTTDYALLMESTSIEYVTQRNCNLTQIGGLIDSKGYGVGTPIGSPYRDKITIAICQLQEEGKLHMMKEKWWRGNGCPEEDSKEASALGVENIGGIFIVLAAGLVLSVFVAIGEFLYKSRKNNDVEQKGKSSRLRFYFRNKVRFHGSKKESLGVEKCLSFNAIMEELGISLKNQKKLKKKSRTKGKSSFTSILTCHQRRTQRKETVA
GluA2 Leu704Tyr, sequence (P19491 22-883 isoform P19491-2 L504Y/L725Y): as the sequence (P19491 22-883 isoform P19491-2 L504Y limits assumed) above, with L704Y counted along it
GluK1 Met722Tyr, sequence (P22756 31-949 M752Y): as the sequence (P22756 31-949 Y536C/L798C) above, with C506Y, M722Y, C768L counted along it

As for `O=C(O)C1NCCN(C(=O)c2ccc3c(ccc4ccccc43)c2)C1C(=O)O` (single isomer, unassigned; (+)) [(+)-PPDA, 1-(Phenanthrene-2-carbonyl)piperazine-2,3-dicarboxylic acid], the “fold higher potency toward GluN1/GluN2D than GluN1/GluN2A” value in experiment [1] is 5–6 fold. Also, the “fold weaker potency than (−)-PPDA” value is listed as 6–7 fold in experiment [1] (dose-response inhibition) and 6–7 fold in [2] (dose-response inhibition, TEVC).

A word on the Ki: it is the equilibrium dissociation constant of an inhibitor or competing ligand from its target. In the case of `O=C(O)C1NCCN(C(=O)c2ccc3c(ccc4ccccc43)c2)C1C(=O)O` (single isomer, unassigned; (-)) [(−)-PPDA, 1-(Phenanthrene-2-carbonyl)piperazine-2,3-dicarboxylic acid], the “effect of mutation on sensitivity” value in experiment [3] and in experiment [12] was “minor effects” each time. Moreover, the Ki in experiment [4] was 0.82 µM; in experiment [8], 1.17 µM; in experiment [11], 7.85 µM. In addition, the inhibition of current result in experiment [2] (100 µM compound in the presence of agonists (100 µM glycine/30 µM glutamate)), in experiment [8] (setting [15]) and in experiment [11] (setting [15]) was “completely inhibited” throughout. Besides, the results for the change in sensitivity entry in experiment [5], in experiment [6] and in experiment [13] were “little or no change”, “increase in (−)-PPDA sensitivity” and “little or no change”, respectively. For the same molecule, the “effect of mutation on potency” value was “decreases the (−)-PPDA sensitivity” in experiment [7], “increases the (−)-PPDA sensitivity” in experiment [9] and “decreases the (−)-PPDA sensitivity” in experiment [10].

Consider `N[C@H](CCCP(=O)(O)O)C(=O)O` [D-AP5, D-(−)-2-Amino-5-phosphonopentanoic acid], for which the “effect of mutation on sensitivity” value in [3] and in experiment [12] was “minor effects” each time. Moreover, the “sensitivity to D-AP5” value on GluK1 Met722Tyr and on GluA2 Leu704Tyr was “does not confer sensitivity” throughout. Moreover, the “fold increase in Ki” value in experiment [5] was ~ 20 fold; in experiment [13], ~ 80 fold. In addition, in experiment [6], the change in sensitivity entry is recorded as “five-fold decrease in sensitivity”. Further, the “effect of mutation on potency” value in experiment [7], in [9] and in [10] was “only minor effects” throughout. The inhibitory effect result in the experiment on non-NMDA receptors was “no inhibitory effect”.

On to `C[C@H](N[C@@H](c1cccc2[nH]c(=O)c(=O)[nH]c12)P(=O)(O)O)c1ccc(Br)cc1` [NVP-AAM077], for which the “specificity toward GluN2A containing over GluN2B containing NMDA receptors” value in experiment [14] is recorded as 5 fold. In addition, the potency entry in the experiment with NMDA receptors is listed as “nanomolar potency”.

On to `N[C@@H](Cc1cc(-c2ccc(Cl)cc2Cl)cc(CP(=O)(O)O)c1O)C(=O)O` [SDZ220-040], for which the potency entry in the experiment with NMDA receptors was “nanomolar potency”.
